# Data from patent US8586573B2, “N-(Aminoheteroaryl)-1H-indole-2-carboxamide derivatives, and preparation and therapeutic application thereof” (Sanofi, priority 2006, dated 2013).
row,Structure (SMILES),melting point [°C]
1,"COc1cc(N2CCCC2)ncc1NC(=O)c1cc2cc(F)ccc2n1Cc1ccncc1 [Compound 18, N-[4-methoxy-6-(pyrrolidin-1-yl)pyridin-3-yl]-5-fluoro-1-[(pyridin-4-yl)methyl]-1H-indole-2-carboxamide]",225 to 226
2,"Cc1cc(Cn2c(C(=O)Nc3ccc(N4CCCC4)nc3)cc3cc(F)ccc32)ccn1 [Compound 19, N-[6-(pyrrolidin-1-yl)pyridin-3-yl]-5-fluoro-1-[(2-methylpyridin-4-yl)methyl]-1H-indole-2-carboxamide]",213 to 215
3,"O=C(Nc1ccc(N2CC3CCC3C2)nc1)c1cc2cc(F)ccc2n1Cc1cccc(F)c1 (stereo not shown) [Compound 22, N-[6-(3-azabicyclo[3.2.0]hept-3-yl)pyridin-3-yl]-5-fluoro-1-(3-fluorobenzyl)-1H-indole-2-carboxamide]",163 to 165
4,"O=C(Nc1ccc(N2CC(O)C2)nc1)c1cc2cc(F)ccc2n1Cc1cccc(F)c1 [Compound 24, N-[6-(3-hydroxyazetidin-1-yl)pyridin-3-yl]-5-fluoro-1-(3-fluorobenzyl)-1H-indole-2-carboxamide]",199 to 200
5,"O=C(Nc1ccc(N2CCC2)nc1)c1cc2cc(C(F)(F)F)ccc2n1Cc1cccc(F)c1 [Compound 25, N-[6-(azetidin-1-yl)pyridin-3-yl]-5-trifluoromethyl-1-(3-fluorobenzyl)-1H-indole-2-carboxamide]",222 to 224
6,"O=C(Nc1ccc(N2CCC2)nc1)c1cc2cc(F)ccc2n1Cc1ccncc1 [Compound 26, N-[6-(azetidin-1-yl)pyridin-3-yl]-1-[(pyridin-4-yl)methyl]-5-fluoro-1H-indole-2-carboxamide]",212 to 214
7,"O=C(Nc1ccc(N2CC(O)C2)nc1)c1cc2cc(C(F)(F)F)ccc2n1Cc1cccc(F)c1 [Compound 29, N-[6-(3-hydroxyazetidin-1-yl)pyridin-3-yl]-1-(3-fluorobenzyl)-5-trifluoromethyl-1H-indole-2-carboxamide]",194 to 196
8,"O=C(Nc1ccc(N2CC(O)C2)nc1)c1cc2ccc(C(F)(F)F)cc2n1Cc1cccc(F)c1 [Compound 30, N-[6-(3-hydroxyazetidin-1-yl)pyridin-3-yl]-1-(3-fluorobenzyl)-6-trifluoromethyl-1H-indole-2-carboxamide]",253 to 255
9,"O=C(Nc1ccc(N2CCC2)nc1)c1cc2cc(F)ccc2n1Cc1ccccc1 [Compound 31, N-[6-(azetidin-1-yl)pyridin-3-yl]-5-fluoro-1-(benzyl)-1H-indole-2-carboxamide]",208 to 210
10,"Cc1cc(C)c2cc(C(=O)Nc3ccc(N4CCC4)nc3)n(Cc3cccc(F)c3)c2c1 [Compound 32, N-[6-(azetidin-1-yl)pyridin-3-yl]-4,6-dimethyl-1-(3-fluorobenzyl)-1H-indole-2-carboxamide]",234 to 236
11,"CC(C)(C)c1ccc2cc(C(=O)Nc3ccc(N4CCC4)nc3)n(Cc3cccc(F)c3)c2c1 [Compound 33, N-[6-(azetidin-1-yl)pyridin-3-yl]-6-tert-butyl-1-(3-fluorobenzyl)-1H-indole-2-carboxamide]",204 to 206
12,"CC(C)Oc1ccc2cc(C(=O)Nc3ccc(N4CCC4)nc3)n(Cc3cccc(F)c3)c2c1 [Compound 34, N-[6-(azetidin-1-yl)pyridin-3-yl]-6-isopropyloxy-1-(3-fluorobenzyl)-1H-indole-2-carboxamide]",198 to 200
13,"CS(=O)(=O)c1ccc2c(c1)cc(C(=O)Nc1ccc(N3CCC3)nc1)n2Cc1cccc(F)c1 [Compound 35, N-[6-(azetidin-1-yl)pyridin-3-yl]-5-methylsulphonyl-1-(3-fluorobenzyl)-1H-indole-2-carboxamide]",258 to 260

# Continued, values first:
row,melting point [°C],Structure (SMILES)
1,256 to 258,"CN(C)c1ccc2cc(C(=O)Nc3ccc(N4CCC4)nc3)n(Cc3cccc(F)c3)c2c1 [Compound 36, N-[6-(azetidin-1-yl)pyridin-3-yl]-6-dimethylamino-1-(3-fluorobenzyl)-1H-indole-2-carboxamide]"
2,206 to 208,"CSc1ccc2cc(C(=O)Nc3ccc(N4CCC4)nc3)n(Cc3cccc(F)c3)c2c1 [Compound 37, N-[6-(azetidin-1-yl)pyridin-3-yl]-6-methylthio-1-(3-fluorobenzyl)-1H-indole-2-carboxamide]"
3,214 to 216,"O=C(Nc1ccc(N2CCC2)nc1)c1cc2c(F)cccc2n1Cc1cccc(F)c1 [Compound 38, N-[6-(azetidin-1-yl)pyridin-3-yl]-4-fluoro-1-(3-fluorobenzyl)-1H-indole-2-carboxamide]"
4,244 to 246,"O=C(Nc1ccc(N2CCC2)nc1)c1cc2cccc(F)c2n1Cc1cccc(F)c1 [Compound 39, N-[6-(azetidin-1-yl)pyridin-3-yl]-7-fluoro-1-(3-fluorobenzyl)-1H-indole-2-carboxamide]"
5,210 to 212,"O=C(Nc1ccc(N2CCC2)nc1)c1cc2ccc(F)cc2n1Cc1cccc(F)c1 [Compound 40, N-[6-(azetidin-1-yl)pyridin-3-yl]-6-fluoro-1-(3-fluorobenzyl)-1H-indole-2-carboxamide]"
6,226 to 228,"O=C(Nc1ccc(N2CCC2)nc1)c1cc2c(Cl)cccc2n1Cc1cccc(F)c1 [Compound 41, N-[6-(azetidin-1-yl)pyridin-3-yl]-4-chloro-1-(3-fluorobenzyl)-1H-indole-2-carboxamide]"
7,218 to 220,"O=C(Nc1ccc(N2CCC2)nc1)c1cc2ccc(Cl)cc2n1Cc1cccc(F)c1 [Compound 42, N-[6-(azetidin-1-yl)pyridin-3-yl]-6-chloro-1-(3-fluorobenzyl)-1H-indole-2-carboxamide]"
8,226 to 228,"O=C(Nc1ccc(N2CCC2)nc1)c1cc2cc(Cl)ccc2n1Cc1cccc(F)c1 [Compound 43, N-[6-(azetidin-1-yl)pyridin-3-yl]-5-chloro-1-(3-fluorobenzyl)-1H-indole-2-carboxamide]"
9,328 to 330,"O=C(Nc1ccc(N2CCC2)nc1)c1cc2ccccc2n1Cc1cccc(F)c1 [Compound 44, N-[6-(azetidin-1-yl)pyridin-3-yl]-1-(3-fluorobenzyl)-1H-indole-2-carboxamide]"
10,246 to 248,"Cc1cccc2c1cc(C(=O)Nc1ccc(N3CCC3)nc1)n2Cc1cccc(F)c1 [Compound 45, N-[6-(azetidin-1-yl)pyridin-3-yl]-4-methyl-1-(3-fluorobenzyl)-1H-indole-2-carboxamide]"
11,228 to 230,"Cc1ccc2cc(C(=O)Nc3ccc(N4CCC4)nc3)n(Cc3cccc(F)c3)c2c1 [Compound 46, N-[6-(azetidin-1-yl)pyridin-3-yl]-6-methyl-1-(3-fluorobenzyl)-1H-indole-2-carboxamide]"
12,236 to 238,"Cc1ccc2c(c1)cc(C(=O)Nc1ccc(N3CCC3)nc1)n2Cc1cccc(F)c1 [Compound 47, N-[6-(azetidin-1-yl)pyridin-3-yl]-5-methyl-1-(3-fluorobenzyl)-1H-indole-2-carboxamide]"
13,204 to 206,"CC(C)c1ccc2c(c1)cc(C(=O)Nc1ccc(N3CCC3)nc1)n2Cc1cccc(F)c1 [Compound 48, N-[6-(azetidin-1-yl)pyridin-3-yl]-5-isopropyl-1-(3-fluorobenzyl)-1H-indole-2-carboxamide]"
14,212 to 214,"CC(C)(C)c1ccc2c(c1)cc(C(=O)Nc1ccc(N3CCC3)nc1)n2Cc1cccc(F)c1 [Compound 49, N-[6-(azetidin-1-yl)pyridin-3-yl]-5-tert-butyl-1-(3-fluorobenzyl)-1H-indole-2-carboxamide]"
15,196 to 198,"CCc1ccc2cc(C(=O)Nc3ccc(N4CCC4)nc3)n(Cc3cccc(F)c3)c2c1 [Compound 50, N-[6-(azetidin-1-yl)pyridin-3-yl]-6-ethyl-1-(3-fluorobenzyl)-1H-indole-2-carboxamide]"
16,184 to 186,"CC(C)c1ccc2cc(C(=O)Nc3ccc(N4CCC4)nc3)n(Cc3cccc(F)c3)c2c1 [Compound 51, N-[6-(azetidin-1-yl)pyridin-3-yl]-6-isopropyl-1-(3-fluorobenzyl)-1H-indole-2-carboxamide]"
17,220 to 222,"O=C(Nc1ccc(N2CCC2)nc1)c1cc2ccc(C(F)(F)F)cc2n1Cc1cccc(F)c1 [Compound 52, N-[6-(azetidin-1-yl)pyridin-3-yl]-6-trifluoromethyl-1-(3-fluorobenzyl)-1H-indole-2-carboxamide]"
18,170 to 171,"O=C(Nc1cnc(N2CCCC2)cc1C(F)(F)F)c1cc2cc(F)ccc2n1Cc1cccc(F)c1 [Compound 53, N-[6-(pyrrolidin-1-yl)-4-(trifluoromethyl)pyridin-3-yl]-5-fluoro-1-(3-fluorobenzyl)-1H-indole-2-carboxamide]"
